Results: paper PMC2131780, “A Tale of Switched Functions: From Cyclooxygenase Inhibition to M-Channel Modulation in New Diphenylamine Derivatives” (PLoS ONE, 2007)
Like-named read-outs stand apart in the source and are kept apart here.

How the values were obtained:
[1] = system: COX enzymes (CT26 mouse colon adenocarcinoma cells); experiment: COX inhibition, PGE2 production in CT26 cells; format: cell-based
From the text: (§1) In addition, the aromatic rings of the diphenylamine moiety were substituted with different electron donating or withdrawing groups. In a first screen, two parameters were checked: (a) the non-selective inhibition of COX-1/COX-2 enzyme activities, measured by the production of PGE2 in cultured mouse colon adenocarcinoma (CT26) and mouse Lewis lung carcinoma cells (D122) cells; (b) the M-channel activity, measured by the heterologous coexpression of Kv7.2 and Kv7.3 subunits in Chinese hamster ovary (CHO) cells.
(§2) Mouse colon adenocarcinoma CT26 and mouse Lewis lung carcinoma D122 cells were grown in DMEM (D122) or RPMI (CT26) supplemented with 10% fetal calf serum, 4% glutamine, 1% penicillin-streptomycin-nystatin and 3% non essential amino acids (D122) and maintained in a humidified 37°C incubator with 5% CO2. For the COX assays, cells were grown onto 24 multiwell plates. Before the assay, cells were washed with serum-free medium; then tested compounds were added to the medium and incubated for 30 min at 37°C after which 30 µM arachidonic acid was added and incubated for additional 20 min. At the end of the incubations, 10 µM indomethacin was added to stop the reaction and medium was transferred to another 24 multiwell plate for measuring PGE2 production by radioimmunoassay (DuPont-NEN; Boston, MA) according to manufacturer protocol. Protein determination was assayed on scraped cells and was used to normalize the amount of PGE2 production. Assays with purified ovine COX-1 and human recombinant COX-2 were performed using the COX inhibitor screening assay (Cayman chemical company, Ann Arbor, MI), according to manufacturer protocol.

[2] = system: COX enzymes (D122 mouse Lewis lung carcinoma cells); experiment: COX inhibition, PGE2 production in D122 cells; format: cell-based; conditions: average of two experiments in triplicate
From the text: as §1, §2

rat DRG neurons = experiment: Current-clamp recording of cultured DRG neurons; format: cell-based; conditions: 25 µM
Experimental: For dorsal root ganglion (DRG) neuronal cultures, ganglia were dissected from 2–5 day-old Sprague-Dawley rats killed by decapitation. DRGs were placed in Hank's balanced saline solution (HBSS) and prepared by enzymatic dissociation. Briefly, after 30 min incubation in 5 mg/ml dispase, 2 mg/ml collagenase type 1A and 0.1 mg/ml DNase (Invitrogen/Gibco, Carlsbad, CA) in Ca^2+ and Mg^2+-free HBSS, the ganglia were mechanically triturated with a fire-polished glass Pasteur pipette. The ganglia were then centrifuged for 5 min at 80xg and resuspended in DMEM supplemented with 2 mM L-glutamine, 16.5 mM NaHCO3, 6 g/l glucose, 5 ml penicillin/streptomycin and 10% fetal calf serum. For electrophysiological recording, dissociated neurons were plated on 13 mm glass coverslips, previously coated with poly-D-lysine (1 mg/ml) and laminin (10 µg/ml) and used at 1–2 days in culture.
For current-clamp recordings in primary cultured neurons, the patch pipettes were filled with (in mM): 135 KCl, 1 K2ATP, 1 MgATP, 2 EGTA, 1.1 CaCl2, 5 glucose, 10 HEPES, adjusted with KOH at pH 7.4 (315 mOsm). The external solution contained (in mM): 150 NaCl, 2.5 KCl, 2 CaCl2, 2 MgCl2, 15 glucose, 10 HEPES, adjusted with NaOH at pH 7.4 (325 mOsm). Recordings were sampled at 5 kHz and filtered at 2 KHz via a 4-pole Bessel low pass filter. A liquid junction potential of about −15.6 mV was measured between the intracellular and saline solutions and corrected on-line. For evoking spike discharges, 75–200 pA square depolarizing current pulses were injected into neurons for 400 ms. For rheobase current measurements, 100–1100 pA square depolarizing current pulses were injected into neurons for 2 ms.

rat hippocampal neurons = experiment: Current-clamp recording of cultured hippocampal neurons; format: cell-based
Experimental: For hippocampal neuronal cultures, Sprague-Dawley rat embryos (E18) were removed by caesarian section and their hippocampi were dissected out. The tissue was digested with papain for 20 min, triturated to a single-cell suspension, and plated at a density of 40,000 cells per ml on a substrate of bovine collagen type IV and 100 µg/ml poly-L-lysine in 13 mm diameter glass coverslips of a 24-multiwell plate. The culture medium consisted of Modified Eagle's Medium containing 5% horse serum (Biological Industries, Beit HaEmek, Israel), B-27 neuronal supplement (Invitrogen, Carlsbad, CA), 100 U/ml penicillin, 100 µg/ml streptomycin, and 2 mM glutamine. D-glucose was supplemented to a final concentration of 6 g/l. Cytosine-1-D-arabinofuranoside (5 µM) was added after 5 days to arrest glial cell proliferation. For electrophysiological recordings hippocampal neurons were used at 10–14 days in culture. All cultures were maintained at 37°C in humidified air containing 5% CO2.
For current-clamp recordings in primary cultured neurons, the patch pipettes were filled with (in mM): 135 KCl, 1 K2ATP, 1 MgATP, 2 EGTA, 1.1 CaCl2, 5 glucose, 10 HEPES, adjusted with KOH at pH 7.4 (315 mOsm). […] A liquid junction potential of about −15.6 mV was measured between the intracellular and saline solutions and corrected on-line. […]

[3] = system: MES-induced tonic hind limb extension; experiment: Maximal electroshock seizure (MES) model; format: in vivo, mouse; conditions: Mus musculus, ip; mice, intraperitoneal, 30 min before electroshock (0.2 sec, 50 mA); read-out: ED50, protection against tonic extension caused by MES
Experimental: This test is generally thought to be a model of generalized tonic-clonic seizure in human.
The anti-convulsant effect was measured by the maximal electroshock seizure model (MES) in ICR mice as previously described. The procedures followed for experimentation and maintenance of the animals were approved by the animal research ethics committee of Tel Aviv University and in accordance with the Guide for the Care and Use of Laboratory Animals (1996, National Academy of Sciences, Washington DC). Briefly, maximal electroshock was induced in adult mice by means of two transcorneal electrodes delivering an alternative current of 50 mA at 60 Hz for 0.2 sec using rodent shocker (Hugo Sachs Electronik, type 221). […] The drugs dissolved in 0.9% saline were administered intraperitoneally 30 min before the electroshock was performed. Animals failing to show tonic hind limb extension were scored as protected and were expressed in percentage.

O=C(Cc1cc([N+](=O)[O-])ccc1Nc1c(Cl)cccc1Cl)OCCO [Compound 15]
IC50 ([1]; average of two experiments in triplicate, read-out: COX inhibition (IC50, µM) CT26): 0.048 µM | IC50 ([1]; read-out: COX inhibition IC50, typical experiment (Figure 1)): 0.069 µM | IC50 [2]: 0.229 µM | hyperpolarization of resting membrane potential, DRG neurons (rat DRG neurons): −8.3±0.2 mV | resting membrane potential of DRG neurons after exposure (rat DRG neurons): −69.0±0.3 mV | rheobase current to generate a single spike, DRG neurons (rat DRG neurons; 2 ms injection): 577±38 pA | number of evoked action potentials, DRG neurons (rat DRG neurons; depolarizing current for 400 ms): 0.8±0.3 | number of evoked action potentials, hippocampal neurons (rat hippocampal neurons; 25 µM, 75–200 pA for 400 ms): 2.1±0.5 | hyperpolarization of hippocampal neurons (rat hippocampal neurons; exposed to compound): −8.5 mV | ED50 [3]: 12 mg/kg
